{"source": "patent US6555062B1", "about": "“Reagent container for an automated analyzer” (Bayer Corporation, priority 1991, dated 2003)", "key": {"[1]": {"system": "T4 antiserum covalently coupled to the solid phase", "assay": "Free thyroxine (FT4) competitive chemiluminescent immunoassay, specificity (% cross-reactivity)", "assay_type": "binding", "settings": "FT4 assay, anti-T4 paramagnetic particles, 7.5 minutes at 37° C.", "experimental": "A free thyroxine (FT4) assay has been developed for the above described automated analyzer. The FT4 assay is a competitive binding assay in which FT4 in a test sample competes with labeled T4 (tracer reagent) for a limited amount of T4 antiserum covalently coupled to the solid phase. In the preferred format of this assay acridinium ester is the label and paramagnetic particles serve as the solid phase. A test sample (25 uL.) acridinium ester labeled T4 (100 uL.) and anti-T4 paramagnetic particles (450 uL.) are dispensed by the analyzer into a cuvette and incubated for 7.5 minutes at 37° C. After incubation, magnetic separation and washes are performed as described prior to detection of the chemiluminescent signal. The amount of FT4 present in the test sample is determined by the level of the signed detected and is converted to a dose by a two-point data reduction algorithm."}, "[2]": {"system": "prostate specific antigen (PSA) assay", "assay": "PSA chemiluminescent immunoassay, interfering substances (endogenous compounds, chemotherapeutic agents)", "settings": "mean over three PSA levels", "experimental": "A prostate specific antigen (PSA) assay has been developed for the above described automated analyzer. The PSA assay utilizes an anti-PSA antibody solid phase and a labeled anti-PSA antibody as a tracer reagent. […] A test sample (100 uL.), tracer reagent (50 uL.) and solid phase reagent (250 uL.) are dispersed into a cuvette by the analyzer and incubated for 7.5 minutes at 37° C. After the incubation, magnetic separation and washes are performed as described above prior to detection of the chemiluminescent signal.\nAll data presented was generated based on a two-point calibration off a standard curve consisting of eight points."}, "[3]": {"system": "monoclonal anti-digoxin antibody", "assay": "Digoxin chemiluminescent immunoassay, specificity (cross-reactivity, effect on dose)", "assay_type": "binding", "settings": "digoxin assay", "experimental": "A digoxin assay has been developed for the above described automated analyzer. The digoxin assay architecture is a hapten solid phase with a labeled antibody (tracer reagent). In the preferred format of this assay, the tracer reagent is an acridinium ester labeled monoclonal anti-digoxin antibody; and the solid phase is paramagnetic particles to which digoxin-apoferritin has been immobilized. A test sample (150 uL.) and tracer reagent (50 uL.) are dispensed into a cuvette by the analyzer and incubated for 2.5 minutes at 37° C. The solid phase reagent (250 uL.) is then added to the cuvette followed by an additional incubation of 5.0 minutes. After the second incubation, magnetic separation and washes are performed as described above prior to detection of the chemiluminescent signal.\n(§1) All data presented was generated based upon a two-point recalibration off an original master curve. The master curve was generated using eight standards with values ranging from zero to 6 ng/mL digoxin.\nThe test assay has a sensitivity of less than 0.1 ng/mL (minimum detectable dose defined as the 95% confidence limit at 0 ng/mL.) with a range of 0-5 ng/mL. The correlation of the automated test assay with a manual test assay (Magic^R Digoxin, Ciba Corning Diagnostics, Corp.) provided a slope of 1.00, an intercept of 0.08 and a correlation coefficient of 0.97 (N=130)."}, "[4]": {"system": "human chorionic gonadotropin (hCG) assay", "assay": "hCG sandwich immunoassay, interfering substances (NCCLS protocols)", "settings": "bilirubin 20, lipid 1,000, hemolysate 500 mg/dL", "experimental": "A human chorionic gonadotropin (hCG) assay has been developed for the above described automated analyzer. […] A test sample (50 uL.) and tracer reagent (100 uL.) are dispensed into a cuvette by the analyzer and incubated for 5.0 minutes at 37° C. The capture solid phase reagent (450 uL.) is then added to the cuvette followed by an additional incubation of 2.5 minutes. After the second incubation, magnetic separation and washes are performed as described above prior to detection of the chemiluminescent signal.\nAll data presented was generated based on a two-point calibration off a full standard master curve, consisting of ten standards. The standards, ranging from zero to 1000 mIU/mL., are calibrated against the WHO 1st 75/537 reference material."}, "[5]": {"assay": "Digoxin immunoassay, interfering substances (NCCLS protocols)", "settings": "bilirubin 20, lipid 1,000, hemolysate 500 mg/dL", "experimental": "A digoxin assay has been developed for the above described automated analyzer. The digoxin assay architecture is a hapten solid phase with a labeled antibody (tracer reagent). […] A test sample (150 uL.) and tracer reagent (50 uL.) are dispensed into a cuvette by the analyzer and incubated for 2.5 minutes at 37° C. The solid phase reagent (250 uL.) is then added to the cuvette followed by an additional incubation of 5.0 minutes. After the second incubation, magnetic separation and washes are performed as described above prior to detection of the chemiluminescent signal.\nas §1"}}, "note": "Values joined by “and” are separate entries in the source; they are usually repeats but may differ in a detail not shown here. Equal entries are not always repeated.", "data": [{"molecule": "N[C@@H](Cc1cc(I)c(Oc2ccc(O)cc2)c(I)c1)C(=O)O", "note": "[3,5-diiodo-L-thyronine]", "values": [{"measurement": "% Cross-Reactivity", "setting": "[1]", "result": "<0.002", "unit": "%"}]}, {"molecule": "O=P1(N(CCCl)CCCl)NCCCO1", "note": "(centres unmarked) [Cyclophosphamide]", "values": [{"measurement": "Spiked vs. Control, Mean +/− SD", "setting": "[2]; chemotherapeutic agents", "result": "98 +/− 3%"}]}, {"molecule": "N[C@H](Cc1cc(I)c(Oc2cc(I)c(O)c(I)c2)c(I)c1)C(=O)O", "note": "[D-thyroxine]", "values": [{"measurement": "% Cross-Reactivity", "setting": "[1]", "result": ">64", "unit": "%"}]}, {"molecule": "N[C@H](Cc1cc(I)c(Oc2ccc(O)c(I)c2)c(I)c1)C(=O)O", "note": "[D-triiodothyronine]", "values": [{"measurement": "% Cross-Reactivity", "setting": "[1]", "result": 3.6, "unit": "%"}]}, {"molecule": "C[C@H]1O[C@@H](O[C@H]2CC[C@@]3(C)[C@H](CC[C@@H]4[C@@H]3C[C@@H](O)[C@]3(C)[C@@H](C5=CC(=O)OC5)CC[C@]43O)C2)C[C@H](O)[C@@H]1O[C@H]1C[C@H](O)[C@H](O[C@H]2C[C@H](O)[C@H](O[C@@H]3O[C@H](CO)[C@@H](O)[C@H](O)[C@H]3O)[C@@H](C)O2)[C@@H](C)O1", "note": "[Deslanoside]", "values": [{"measurement": "% Cross-Reactivity", "setting": "[3]", "result": 94.6, "unit": "%"}]}, {"molecule": "CC/C(=C(/CC)c1ccc(O)cc1)c1ccc(O)cc1", "note": "[Diethyl-Stilbesterol]", "values": [{"measurement": "Spiked vs. Control, Mean +/− SD", "setting": "[2]; chemotherapeutic agents", "result": "101 +/− 5%"}]}, {"molecule": "C[C@H]1O[C@@H](O[C@H]2[C@@H](O)C[C@H](O[C@H]3[C@@H](O)C[C@H](O[C@H]4CC[C@@]5(C)[C@H](CC[C@@H]6[C@@H]5CC[C@]5(C)[C@@H](C7=CC(=O)OC7)CC[C@]65O)C4)O[C@@H]3C)O[C@@H]2C)C[C@H](O)[C@@H]1O", "note": "[Digitoxin]", "values": [{"measurement": "% Cross-Reactivity", "setting": "[3]", "result": 0.6, "unit": "%"}]}, {"molecule": "N[C@@H](Cc1cc(I)c(O)c(I)c1)C(=O)O", "note": "[Diiodotyrosine]", "values": [{"measurement": "% Cross-Reactivity", "setting": "[1]", "result": "<0.002", "unit": "%"}]}, {"molecule": "COc1cccc2c1C(=O)c1c(O)c3c(c(O)c1C2=O)C[C@@](O)(C(=O)CO)C[C@@H]3O[C@H]1C[C@H](N)[C@H](O)[C@H](C)O1", "note": "[Doxorubicin]", "values": [{"measurement": "Spiked vs. Control, Mean +/− SD", "setting": "[2]; chemotherapeutic agents", "result": "100 +/− 3%"}]}, {"molecule": "N[C@@H](Cc1cc(I)c(Oc2ccc(O)c(I)c2)c(I)c1)C(=O)O", "note": "[L-triiodothyronine]", "values": [{"measurement": "% Cross-Reactivity", "setting": "[1]", "result": 3.9, "unit": "%"}]}, {"molecule": "CC(=O)O[C@H]1C[C@H](O[C@H]2[C@@H](O)C[C@H](O[C@H]3[C@@H](O)C[C@H](O[C@H]4CC[C@@]5(C)[C@H](CC[C@@H]6[C@@H]5C[C@@H](O)[C@]5(C)[C@@H](C7=CC(=O)OC7)CC[C@]65O)C4)O[C@@H]3C)O[C@@H]2C)O[C@H](C)[C@H]1O[C@@H]1O[C@H](CO)[C@@H](O)[C@H](O)[C@H]1O", "note": "[Lanatoside C]", "values": [{"measurement": "% Cross-Reactivity", "setting": "[3]", "result": 87.1, "unit": "%"}]}, {"molecule": "CC(=O)O[C@]1(C(C)=O)CC[C@H]2[C@@H]3C=C(C)C4=CC(=O)CC[C@]4(C)[C@H]3CC[C@@]21C", "note": "[Megestrol Acetate]", "values": [{"measurement": "Spiked vs. Control, Mean +/− SD", "setting": "[2]; chemotherapeutic agents", "result": "101 +/− 5%"}]}, {"molecule": "N[C@@H](Cc1ccc(O)c(I)c1)C(=O)O", "note": "[Monoiodotyrosine]", "values": [{"measurement": "% Cross-Reactivity", "setting": "[1]", "result": "<0.002", "unit": "%"}]}, {"molecule": "C[C@@H]1O[C@@H](O[C@H]2C[C@@H](O)[C@]3(CO)[C@H]4[C@H](O)C[C@]5(C)[C@@H](C6=CC(=O)OC6)CC[C@]5(O)[C@@H]4CC[C@]3(O)C2)[C@H](O)[C@H](O)[C@H]1O", "note": "[Ouabain]", "values": [{"measurement": "% Cross-Reactivity", "setting": "[3]", "result": 7.3, "unit": "%"}]}, {"molecule": "NC(Cc1ccc(Oc2cc(I)c(O)c(I)c2)c(I)c1)C(=O)O", "note": "(centres unmarked) [Reverse triiodothyronine]", "values": [{"measurement": "% Cross-Reactivity", "setting": "[1]", "result": 3.1, "unit": "%"}]}, {"molecule": "C=CC1=C(C)/C(=C/c2[nH]c(Cc3[nH]c(/C=C4\\NC(=O)C(C)=C4C=C)c(C)c3CCC(=O)O)c(CCC(=O)O)c2C)NC1=O", "note": "[Unconjug. Bilirubin]", "values": [{"measurement": "Spiked vs. Control", "setting": "[4]", "result": "106% and 98% and 103%"}, {"measurement": "Spiked vs. Control", "setting": "[5]", "result": "105% and 99%"}, {"measurement": "Spiked vs. Control, Mean +/− SD", "setting": "[2]; endogenous interferents", "result": "103 +/− 6%"}]}, {"molecule": "CO[C@H]1[C@@H](O)C[C@H](O[C@H]2[C@@H](O)C[C@H](O[C@H]3[C@@H](O)C[C@H](O[C@H]4CC[C@@]5(C)[C@H](CC[C@@H]6[C@@H]5C[C@@H](O)[C@]5(C)[C@@H](C7=CC(=O)OC7)CC[C@]65O)C4)O[C@@H]3C)O[C@@H]2C)O[C@@H]1C", "note": "[β-Methyldigoxin]", "values": [{"measurement": "% Cross-Reactivity", "setting": "[3]", "result": 109.4, "unit": "%"}]}, {"molecule": "Conjugated Bilirubin", "values": [{"measurement": "Spiked vs. Control", "setting": "[4]", "result": 102, "unit": "%"}, {"measurement": "Spiked vs. Control", "setting": "[5]", "result": "106% and 99%"}, {"measurement": "Spiked vs. Control, Mean +/− SD", "setting": "[2]; endogenous interferents", "result": "101 +/− 9%"}]}, {"molecule": "Hemoglobin: endogenous interferent spiked into patient samples at 500 mg/dL", "values": [{"measurement": "Spiked vs. Control, Mean +/− SD", "setting": "[2]; endogenous interferents", "result": "99 +/− 4%"}]}]}
